Each structure is given as a SMILES string. The source made the active and inactive calls.

In assay [1] the test system is Streptococcus sp. 'group A'. The experiment in a line: growth inhibition of control SK(-) GAS strain, dose response, counter-screen for streptokinase expression inhibitor project, luminescence, kanamycin, BacTiterGlo, confirmation (AID 1900). Format: functional, organism-based.
Assay [2] in a line: inhibitors of SNCA 5'UTR-driven reporter translation, confirmation, H4 neuroglioma cells, luminescence (AID 1988). In kind it is functional, cell-based.
Another assay addresses T1, Caspase-6 (Homo sapiens, UniProt P55212).
T1 sequence (P55212 whole entry): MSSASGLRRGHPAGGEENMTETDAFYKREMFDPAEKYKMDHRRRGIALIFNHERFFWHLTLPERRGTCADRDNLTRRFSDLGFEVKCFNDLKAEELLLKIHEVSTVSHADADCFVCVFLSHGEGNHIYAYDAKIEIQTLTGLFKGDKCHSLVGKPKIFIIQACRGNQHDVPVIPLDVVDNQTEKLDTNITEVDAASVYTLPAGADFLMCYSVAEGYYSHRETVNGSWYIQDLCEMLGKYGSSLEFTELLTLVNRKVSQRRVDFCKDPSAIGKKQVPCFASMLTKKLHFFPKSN
The experiment in a line: human caspase-6 inhibitors, dose response, biochemical, VEID-R110 fluorescence, cherry-pick (AID 720632).

Assay [3] is described as follows: C. albicans growth with fluconazole, confirmation, fluorescence, retest (AID 2467). Format: functional, cell-based.
Assay [4] concerns the target 72 kDa type IV collagenase (Homo sapiens, UniProt P08253). The assay is described as follows: Dose Response validation of uHTS RPN11 inhibitor hits using a MMP-2 Fluorescence assay. In kind it is functional.
Another assay has as its target Prothrombin (Bos taurus, UniProt P00735). The assay is described as follows: thrombin inhibition, dose response, biochemical, fluorescence polarization, uHTS hits (AID 602369). Format: functional.
Assay [5] has as its target T2, Rac GTPase-activating protein 1 (Homo sapiens, UniProt Q9H0H5).
T2 sequence (Q9H0H5 whole entry): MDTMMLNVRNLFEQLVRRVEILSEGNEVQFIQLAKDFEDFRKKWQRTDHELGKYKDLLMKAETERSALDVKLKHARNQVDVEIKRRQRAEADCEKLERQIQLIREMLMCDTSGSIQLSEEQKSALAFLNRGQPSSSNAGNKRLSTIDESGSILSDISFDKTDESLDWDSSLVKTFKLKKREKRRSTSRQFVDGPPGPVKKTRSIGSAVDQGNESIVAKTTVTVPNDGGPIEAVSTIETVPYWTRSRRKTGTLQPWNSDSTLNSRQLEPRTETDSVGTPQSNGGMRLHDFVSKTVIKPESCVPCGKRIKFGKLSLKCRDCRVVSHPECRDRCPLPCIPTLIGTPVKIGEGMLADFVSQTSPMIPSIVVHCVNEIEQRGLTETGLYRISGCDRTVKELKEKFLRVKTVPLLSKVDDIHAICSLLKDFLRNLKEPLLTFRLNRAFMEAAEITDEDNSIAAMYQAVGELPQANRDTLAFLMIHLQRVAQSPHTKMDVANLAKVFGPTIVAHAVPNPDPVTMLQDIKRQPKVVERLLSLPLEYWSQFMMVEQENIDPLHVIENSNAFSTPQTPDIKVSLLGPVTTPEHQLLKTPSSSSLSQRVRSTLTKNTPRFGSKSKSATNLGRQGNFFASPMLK
The experiment in a line: MgcRacGAP GTPase-activating activity inhibitors, confirmation, biochemical, ADP Hunter fluorescence, primary and confirmatory (AID 624330). In kind it is functional.

Assay [6] addresses T3, DNA repair protein RAD52 homolog (Homo sapiens, UniProt P43351).
T3 sequence (P43351 whole entry): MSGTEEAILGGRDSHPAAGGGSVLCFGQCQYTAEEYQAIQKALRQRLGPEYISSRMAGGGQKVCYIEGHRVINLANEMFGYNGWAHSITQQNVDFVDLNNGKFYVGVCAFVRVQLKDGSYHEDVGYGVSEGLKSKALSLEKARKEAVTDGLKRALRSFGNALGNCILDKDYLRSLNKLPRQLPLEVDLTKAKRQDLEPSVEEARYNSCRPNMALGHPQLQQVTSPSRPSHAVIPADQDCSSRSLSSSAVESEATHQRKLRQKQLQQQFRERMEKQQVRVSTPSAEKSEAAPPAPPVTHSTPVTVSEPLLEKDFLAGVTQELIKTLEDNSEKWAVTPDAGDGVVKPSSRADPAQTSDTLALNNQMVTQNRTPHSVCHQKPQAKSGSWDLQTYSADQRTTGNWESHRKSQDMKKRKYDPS
Format: functional, biochemical.

A further assay has as its system INS1. The assay is described as follows: beta cell apoptosis inhibitors, cytokine rescue, dose response, luminescence, retest (AID 449756).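 Note: cell death triggered by IL-1 beta plus TNF-alpha plus IFN-gamma mixture; protective hits raise ATP signal compared with cytokine alone wells.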 Format: functional, cell-based. To be noted: Rattus norvegicus.
The nature of assay [7]: microbe, parasite or virus in culture. Format: functional. As to conditions: Mycobacterium tuberculosis.
The target in assay [8] is Small ubiquitin-related modifier 1 (Homo sapiens, UniProt P63165). The assay is described as follows: inhibitors of SUMO1 peptide binding, dose response, biochemical, fluorescence polarization, uHTS hits (AID 624382). In kind it is functional. As to conditions: read-out: IC50_Mean.
Small ubiquitin-related modifier 1, sequence (P63165 whole entry): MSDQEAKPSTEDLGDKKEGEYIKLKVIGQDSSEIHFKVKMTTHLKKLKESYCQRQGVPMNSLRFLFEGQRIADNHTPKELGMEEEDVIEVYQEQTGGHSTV
Assay [9] can be described thus: HeLa cell cytotoxicity, dose response, cytotoxicity control for MgcRacGAP inhibitor project (AID 624300). Format: functional.

72 kDa type IV collagenase, sequence (P08253 whole entry): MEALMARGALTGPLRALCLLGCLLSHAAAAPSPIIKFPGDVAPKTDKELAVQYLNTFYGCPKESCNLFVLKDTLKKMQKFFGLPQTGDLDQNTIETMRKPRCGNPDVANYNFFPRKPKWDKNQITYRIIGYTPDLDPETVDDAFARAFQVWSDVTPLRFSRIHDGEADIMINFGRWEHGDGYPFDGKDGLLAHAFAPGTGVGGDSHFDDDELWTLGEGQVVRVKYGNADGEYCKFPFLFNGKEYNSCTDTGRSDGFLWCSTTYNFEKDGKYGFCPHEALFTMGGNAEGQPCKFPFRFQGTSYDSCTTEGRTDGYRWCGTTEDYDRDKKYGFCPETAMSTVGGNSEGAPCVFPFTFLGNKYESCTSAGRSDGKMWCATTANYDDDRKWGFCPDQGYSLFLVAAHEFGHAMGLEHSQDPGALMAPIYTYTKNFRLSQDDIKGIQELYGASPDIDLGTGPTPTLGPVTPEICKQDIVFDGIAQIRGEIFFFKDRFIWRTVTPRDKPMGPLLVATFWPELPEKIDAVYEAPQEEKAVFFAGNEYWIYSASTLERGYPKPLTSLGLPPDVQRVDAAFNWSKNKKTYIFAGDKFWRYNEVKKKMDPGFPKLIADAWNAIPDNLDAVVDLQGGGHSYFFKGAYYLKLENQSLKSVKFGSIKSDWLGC

Regarding `N=C(N)N/N=C/c1ccc(N(c2ccccc2)c2ccccc2)cc1`, the EC50 in [1] was 2.39 µM (active); in [2], 10.4 µM (active); in [3] it was 5.12 µM (active). For the same compound, the AC50 at Caspase-6 is 10.1 µM (active); in assay [6], 10.8 µM (active); with INS1 it was 7.12 µM (active). The IC50 is 66.3 µM (active) in assay [4], 41.8 µM (active) on Prothrombin, 60.7 µM (active) in assay [5] and > 66.6 µM (inactive) in assay [8]. The CC50 in assay [7] was 6.42 µM (active); in [9], 17.1 µM (active).

These data come from ChEMBL document CHEMBL1201862, “PubChem BioAssay data set” (2004).
